Results from US20040229791A1, “Compositions and methods of modulating TGF-beta activity by fatty acids” (priority 2002, published 2004).

Tested on: TGF-β receptors in Mv1Lu cells
Assay: Binding of 125I-TGF-β2 to Mv1Lu cells in the presence of α2M*
Assay type: cell-based, mink
Conditions: 30 μM arachidonic acid, 200 μg/ml α2M*
Text: The levels of TGF ? β and ? 2M* also increase dramatically. α2M* is capable of inhibiting TGF- ? activity by forming complexes with TGF- ? and thus preventing it from binding to TGF ? β receptors in cells involved. Fatty acids may potentiate TGF ? β activity by blocking complex formation of ? 2M* and TGF ? β under these conditions. To test this possibility, we determined the effects of arachidonic acid on ^125I-TGF- ? 2 binding (in the presence and absence of α2M*) to Mv1Lu cells. ? 2M* is known to inhibit TGF- ? 2 more strongly than TGF ? β1 binding to T receptors in cells (13). Various concentrations of ^125I-TGF- ? 2 were preincubated with 200 μg/ml of ? 2M* in the presence or absence of 30 μM arachidonic acid for 30 min prior to the performance of binding assays in Mv1Lu cells. […] The residual ^125I-TGF- ? binding associated with the cells after ? 2M* inhibition was mainly due to non-specific binding of ^125I-TGF- ? 2. […] In the presence of 200 μg/ml of ? 2M*, the dose-response curve of TGF ? β2 shifted to the right. […] Addition of arachidonic acid at 0.5 and 1 μM reversed the inhibitory effect of. α2M* on TGF- ? 2-induced growth inhibition as measured by [methyl-^3H]-thymidine incorporation.
Binding of ^125I-TGF- ? […] After 2.5 hr at 0° C., the cells were washed with binding buffer, and the cell-associated radioactivity was determined. […]

CCCCC/C=C\C/C=C\C/C=C\C/C=C\CCCC(=O)O [arachidonic acid]
reversal of α2M* inhibition of 125I-TGF-β2 binding to Mv1Lu cells: completely reversed
